Each compound was assayed against T1, AHR (UniProt P35869) (assay: DRE-Luciferase Reporter Assay (Alternate Method), Example 1B). Conditions: concentration which inhibits half of the luciferase activity induced by AHR activating ligand; DRE-luciferase reporter cell line.
T1 sequence (P35869 1-848): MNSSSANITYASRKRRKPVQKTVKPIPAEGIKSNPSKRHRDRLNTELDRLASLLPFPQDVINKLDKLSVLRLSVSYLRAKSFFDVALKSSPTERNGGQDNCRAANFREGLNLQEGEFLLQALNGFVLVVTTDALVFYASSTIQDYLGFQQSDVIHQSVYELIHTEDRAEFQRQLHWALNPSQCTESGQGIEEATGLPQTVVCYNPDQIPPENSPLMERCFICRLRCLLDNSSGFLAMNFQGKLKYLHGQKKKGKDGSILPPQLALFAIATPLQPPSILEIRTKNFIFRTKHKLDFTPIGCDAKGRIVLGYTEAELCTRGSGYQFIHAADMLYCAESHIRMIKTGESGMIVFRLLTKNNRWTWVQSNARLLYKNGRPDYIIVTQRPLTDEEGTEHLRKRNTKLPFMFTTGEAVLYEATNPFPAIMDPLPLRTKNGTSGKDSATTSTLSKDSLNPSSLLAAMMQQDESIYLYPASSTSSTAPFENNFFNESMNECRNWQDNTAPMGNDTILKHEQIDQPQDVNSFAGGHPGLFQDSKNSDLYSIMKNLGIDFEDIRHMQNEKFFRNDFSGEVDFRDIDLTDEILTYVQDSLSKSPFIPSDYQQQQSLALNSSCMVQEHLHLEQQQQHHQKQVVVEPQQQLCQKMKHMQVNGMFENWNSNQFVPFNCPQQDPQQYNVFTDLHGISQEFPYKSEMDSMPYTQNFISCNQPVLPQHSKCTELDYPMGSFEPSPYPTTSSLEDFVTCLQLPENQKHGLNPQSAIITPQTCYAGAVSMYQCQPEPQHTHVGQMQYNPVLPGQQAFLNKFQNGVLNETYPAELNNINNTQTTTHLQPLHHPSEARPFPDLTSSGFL
Format: cell-based
Protocol: AHR binds to Dioxin Responsive Elements (DRE) upstream of genes that it activates. One measure of AHR activity is activation of a reporter gene, such as luciferase, downstream of one or multiple DRE elements. Luciferase activity will reflect activation and inhibition of AHR in the cells expressing his reporter.
Murine Hepa1-6 or Hepa-1c1c7 or other murine cell line with a DRE-luciferase reporter either stably or transiently transfected were plated in media in plates (96-well, 384-well or other plates) and incubated overnight at 37° C. in a C02 incubator or compound and agonist were added at the time of plating. Likewise, human HepG2 or other human cell line with a DRE-luciferase reporter either stably or transiently transfected were plated in media in plates (96-well, 384-well or other plates) and incubated overnight at 37° C. in a C02 incubator or compound and agonist were added at the time of plating.
At the time that cells are plated or following incubation overnight, an AHR activating ligand, such as TCDD, kynurenine, ITE (2-(1H-indole-3-ylcarbonyl)-4-thiazolecarboxylic methyl ester), VAF347, BNF (beta-naphthoflavone), FICZ (6-formylindolo(3,2-b) carbazole or other AHR ligands, was added with or without AHR antagonist.
Cells were incubated for 4, 15 or 24 hours or another time point and then lysed for determination of luciferase activity as a read-out of the AHR activation or inhibition. Luciferase was measured with a commercial kit such as the Promega Luciferase kit or any kit or reagents that provide the luciferin substrate for measuring luciferase activity. The level of luciferase with only activating ligand added was the maximum signal while the luciferase with no ligand was the minimum signal. IC50 values were determined as the concentration which inhibits half of the luciferase activity.

CC(C)c1cnn2c(N[C@@H]3CCc4[nH]c(=O)ccc4C3)nc(-c3cncc(F)c3)nc12 [Compound I-36a, (R)-6-((2-(5-Fluoropyridin-3-yl)-8-isopropylpyrazolo[1,5-a][1,3,5]triazin-4-yl)amino)-5,6,7,8-tetrahydroquinolin-2(1H)-one] and CC(C)c1cnn2c(N[C@H]3CCc4[nH]c(=O)ccc4C3)nc(-c3cncc(F)c3)nc12 [Compound I-36b, (S)-6-((2-(5-Fluoropyridin-3-yl)-8-isopropylpyrazolo[1,5-a][1,3,5]triazin-4-yl)amino)-5,6,7,8-tetrahydroquinolin-2(1H)-one] cannot be ordered by IC50: over 1.5 µM for the first, over 1.5 µM for the second.

Compared with CC(C)c1cnn2c(N[C@@H]3CNc4ncccc4C3)nc(-c3cncc(F)c3)nc12 [Compound I-37a, (3S)—N-[2-(5-Fluoro-3-pyridyl)-8-isopropyl-pyrazolo[1,5-a][1,3,5]triazin-4-yl]-1,2,3,4-tetrahydro-1,8-naphthyridin-3-amine], CC(C)c1cnn2c(N[C@H]3CNc4ncccc4C3)nc(-c3cncc(F)c3)nc12 [Compound I-37b, (3R)—N-[2-(5-Fluoro-3-pyridyl)-8-isopropyl-pyrazolo[1,5-a][1,3,5]triazin-4-yl]-1,2,3,4-tetrahydro-1,8-naphthyridin-3-amine] is lower in IC50: 0.5 to 1 µM for the first, under 0.5 µM for the second. The second is the more potent here.

First: Fc1cncc(-c2nc(N[C@@H]3CCc4[nH]c5ccccc5c4C3)n3ncc(N4CCOCC4)c3n2)c1 [Compound I-38, (3R)—N-[2-(5-Fluoro-3-pyridyl)-8-morpholino-pyrazolo[1,5-a][1,3,5]triazin-4-yl]-2,3,4,9-tetrahydro-1H-carbazol-3-amine]
Second: CN1CCN(c2cnn3c(N[C@@H]4CCc5[nH]c6ccccc6c5C4)nc(-c4cncc(F)c4)nc23)CC1 [Compound I-52, (3R)—N-[2-(5-Fluoro-3-pyridyl)-8-(4-methylpiperazin-1-yl)pyrazolo[1,5-a][1,3,5]triazin-4-yl]-2,3,4,9-tetrahydro-1H-carbazol-3-amine]
The IC50 of the first is lower: under 0.5 µM for the first, 0.5 to 1 µM for the second.

CC(C)c1cnn2c(NCCCCO)nc(-c3cncc(F)c3)nc12 [Compound I-39, 4-[[2-(5-Fluoro-3-pyridyl)-8-isopropyl-pyrazolo[1,5-a][1,3,5]triazin-4-yl]amino]butan-1-ol] and CC(C)c1cnn2c(NCCCO)nc(-c3cncc(F)c3)nc12 [Compound I-43, 3-[[2-(5-Fluoro-3-pyridyl)-8-isopropyl-pyrazolo[1,5-a][1,3,5]triazin-4-yl]amino]propan-1-ol] cannot be ordered by IC50: over 1.5 µM for the first, over 1.5 µM for the second.

CC(CO)CCNc1nc(-c2cncc(F)c2)nc2c(C(C)C)cnn12 (centres unmarked) [Compound I-40, 4-[[2-(5-Fluoro-3-pyridyl)-8-isopropyl-pyrazolo[1,5-a][1,3,5]triazin-4-yl]amino]-2-methyl-butan-1-ol] and CC(CO)CNc1nc(-c2cncc(F)c2)nc2c(C(C)C)cnn12 (centres unmarked) [Compound I-49, 3-[[2-(5-Fluoro-3-pyridyl)-8-isopropyl-pyrazolo[1,5-a][1,3,5]triazin-4-yl]amino]-2-methyl-propan-1-ol] cannot be ordered by IC50: over 1.5 µM for the first, over 1.5 µM for the second.

O[C@H](c1cnn2c(N[C@@H]3CCc4[nH]c5ccccc5c4C3)nc(-c3cncc(F)c3)nc12)C(F)(F)F [Compound I-41a, (1R)-2,2,2-Trifluoro-1-[2-(5-fluoro-3-pyridyl)-4-[[(3R)-2,3,4,9-tetrahydro-1H-carbazol-3-yl]amino]pyrazolo[1,5-a][1,3,5]triazin-8-yl]ethanol] and O[C@@H](c1cnn2c(N[C@@H]3CCc4[nH]c5ccccc5c4C3)nc(-c3cncc(F)c3)nc12)C(F)(F)F [Compound I-41b, (1S)-2,2,2-trifluoro-1-[2-(5-fluoro-3-pyridyl)-4-[[(3R)-2,3,4,9-tetrahydro-1H-carbazol-3-yl]amino]pyrazolo[1,5-a][1,3,5]triazin-8-yl]ethanol] cannot be ordered by IC50: under 0.5 µM for the first, under 0.5 µM for the second.

C[C@H](O)c1cnc2c(N[C@@H]3CCc4[nH]c5ccccc5c4C3)nc(-c3cncc(F)c3)nn12 [Compound I-42a, (1S)-1-[2-(5-Fluoro-3-pyridyl)-4-[[(3R)-2,3,4,9-tetrahydro-1H-carbazol-3-yl]amino]imidazo[2,1-f][1,2,4]triazin-7-yl]ethanol] and C[C@@H](O)c1cnc2c(N[C@@H]3CCc4[nH]c5ccccc5c4C3)nc(-c3cncc(F)c3)nn12 [Compound I-42b, (1R)-1-[2-(5-Fluoro-3-pyridyl)-4-[[(3R)-2,3,4,9-tetrahydro-1H-carbazol-3-yl]amino]imidazo[2,1-f][1,2,4]triazin-7-yl]ethanol] cannot be ordered by IC50: under 0.5 µM for the first, under 0.5 µM for the second.

CC(C)c1cnn2c(N[C@H]3CC[C@H](O)CC3)nc(-c3cncc(F)c3)nc12 [Compound I-44a, 4-[[2-(5-Fluoro-3-pyridyl)-8-isopropyl-pyrazolo[1,5-a][1,3,5]triazin-4-yl]amino]cyclohexanol] and CC(C)c1cnn2c(N[C@H]3CC[C@@H](O)CC3)nc(-c3cncc(F)c3)nc12 [Compound I-44b, 4-[[2-(5-Fluoro-3-pyridyl)-8-isopropyl-pyrazolo[1,5-a][1,3,5]triazin-4-yl]amino]cyclohexanol] cannot be ordered by IC50: over 1.5 µM for the first, over 1.5 µM for the second.

First: CC(C)c1cnn2c(NCCNc3ccccn3)nc(-c3cncc(F)c3)nc12 [Compound I-45, N′-[2-(5-Fluoro-3-pyridyl)-8-isopropyl-pyrazolo[1,5-a][1,3,5]triazin-4-yl]-N-(2-pyridyl)ethane-1,2-diamine]
Second: CC(C)c1cnn2c(N[C@@H]3CCc4ccccc4C3)nc(-c3cncc(F)c3)nc12 [Compound I-48a, 2-(5-Fluoro-3-pyridyl)-8-isopropyl-N-[(2R)-tetralin-2-yl]pyrazolo[1,5-a][1,3,5]triazin-4-amine]
The IC50 of the first is lower: 1 to 1.5 µM for the first, over 1.5 µM for the second. The first is the more potent here.

CC(C)c1cnn2c(N[C@H]3CCc4[nH]c5ccccc5c4C3)nc(-c3cncc(F)c3)nc12 [Compound I-47, (3S)—N-[2-(5-Fluoro-3-pyridyl)-8-isopropyl-pyrazolo[1,5-a][1,3,5]triazin-4-yl]-2,3,4,9-tetrahydro-1H-carbazol-3-amine] and CNc1cnn2c(N[C@@H]3CCc4[nH]c5ccccc5c4C3)nc(-c3cncc(F)c3)nc12 [Compound I-51, 2-(5-Fluoro-3-pyridyl)-N8-methyl-N4-[(3R)-2,3,4,9-tetrahydro-1H-carbazol-3-yl]pyrazolo[1,5-a][1,3,5]triazine-4,8-diamine] cannot be ordered by IC50: under 0.5 µM for the first, under 0.5 µM for the second.

First: CC(C)c1cnn2c(N[C@H]3CCc4ccccc4C3)nc(-c3cncc(F)c3)nc12 [Compound I-48b, 2-(5-Fluoro-3-pyridyl)-8-isopropyl-N-[(2S)-tetralin-2-yl]pyrazolo[1,5-a][1,3,5]triazin-4-amine]
Second: CC(C)c1cnn2c(N[C@@H]3CCc4[nH]c5ccccc5c4C3)nc(-c3cnsc3)nc12 [Compound I-53, (3R)—N-(8-Isopropyl-2-isothiazol-4-yl-pyrazolo[1,5-a][1,3,5]triazin-4-yl)-2,3,4,9-tetrahydro-1H-carbazol-3-amine]
The IC50 of the first is higher: over 1.5 µM for the first, 0.5 to 1 µM for the second.

Fc1cncc(-c2nc(N[C@@H]3CCc4[nH]c5ccccc5c4C3)n3nc4c(c3n2)CNCC4)c1 [Compound I-50, 2-(5-Fluoro-3-pyridyl)-N-[(3R)-2,3,4,9-tetrahydro-1H-carbazol-3-yl]-7,8,9,10-tetrahydropyrido[2,3]pyrazolo[2,4-c][1,3,5]triazin-4-amine] and CC(C)c1cnn2c(N[C@H]3Cc4cncnc4NC3=O)nc(-c3cncc(F)c3)nc12 [Compound I-55a] cannot be ordered by IC50: over 1.5 µM for the first, over 1.5 µM for the second.

CC(C)c1cnn2c(NCCCCO)nc(-c3cnsc3)nc12 [Compound I-54, 4-[(8-Isopropyl-2-isothiazol-4-yl-pyrazolo[1,5-a][1,3,5]triazin-4-yl)amino]butan-1-ol] and CC(C)c1cnn2c(N[C@@H]3Cc4cncnc4NC3=O)nc(-c3cncc(F)c3)nc12 [Compound I-55b, (6R)-6-[[2-(5-fluoro-3-pyridyl)-8-isopropyl-pyrazolo[1,5-a][1,3,5]triazin-4-yl]amino]-6,8-dihydro-5H-pyrido[2,3-d]pyrimidin-7-one] cannot be ordered by IC50: over 1.5 µM for the first, over 1.5 µM for the second.
